“And” between values parts separate entries of the source, which are not always exact repeats. Equal values may be shown once. “Also recorded” adds a separate entry of the source. Read-outs that look alike come from different tables or passages of the source. Marks after values point to notes of the source that are not given here. Each block holds one molecule with its values, some of them ahead of it.
What was measured:
[1] = target: T1, human A2A adenosine receptor (hA2AAR) (Homo sapiens, UniProt P29274); settings: cited from earlier work; for % inhibition of radioligand binding A2A: at 10 μM
T1 sequence (P29274 whole entry): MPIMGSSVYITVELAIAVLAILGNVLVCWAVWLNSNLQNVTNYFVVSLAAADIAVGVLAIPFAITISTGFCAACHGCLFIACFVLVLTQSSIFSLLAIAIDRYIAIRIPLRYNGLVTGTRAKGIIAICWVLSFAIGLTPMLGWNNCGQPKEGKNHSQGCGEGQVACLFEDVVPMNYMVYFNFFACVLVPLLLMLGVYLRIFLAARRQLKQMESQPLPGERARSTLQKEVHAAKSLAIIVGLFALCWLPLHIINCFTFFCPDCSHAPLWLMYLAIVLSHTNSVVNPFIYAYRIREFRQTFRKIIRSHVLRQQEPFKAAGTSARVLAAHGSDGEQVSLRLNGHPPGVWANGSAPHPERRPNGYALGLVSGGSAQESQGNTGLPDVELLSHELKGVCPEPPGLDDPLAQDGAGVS

[2] = target: T2, human A3AR (Homo sapiens, UniProt P0DMS8); settings: at 10 μM, relative to 51 (= 100%); cited from earlier work
T2 sequence (P0DMS8 1-318): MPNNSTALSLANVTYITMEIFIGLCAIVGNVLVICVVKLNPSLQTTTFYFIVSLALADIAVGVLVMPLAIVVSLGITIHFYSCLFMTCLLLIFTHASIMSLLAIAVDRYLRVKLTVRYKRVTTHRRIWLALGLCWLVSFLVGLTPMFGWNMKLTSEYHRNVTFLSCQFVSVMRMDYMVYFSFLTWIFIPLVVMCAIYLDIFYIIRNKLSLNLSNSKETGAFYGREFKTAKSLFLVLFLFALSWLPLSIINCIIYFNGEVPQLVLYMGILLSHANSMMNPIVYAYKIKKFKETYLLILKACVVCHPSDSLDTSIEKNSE

[3] = test system: A3AR; settings: at 10 μM, percentage of full effect induced by 10 μM 51; cited from earlier work
[4] = target: T2, human A3AR; test: Inhibition of forskolin-stimulated cAMP production; settings: for agonist character at hA3AR in the adenylate cyclase (cAMP) assay: relative to full agonist 51
[5] = target: T3, rA3AR (Rattus norvegicus, UniProt P28647); test: Radioligand binding at rat A3AR
T3 sequence (P28647 1-320): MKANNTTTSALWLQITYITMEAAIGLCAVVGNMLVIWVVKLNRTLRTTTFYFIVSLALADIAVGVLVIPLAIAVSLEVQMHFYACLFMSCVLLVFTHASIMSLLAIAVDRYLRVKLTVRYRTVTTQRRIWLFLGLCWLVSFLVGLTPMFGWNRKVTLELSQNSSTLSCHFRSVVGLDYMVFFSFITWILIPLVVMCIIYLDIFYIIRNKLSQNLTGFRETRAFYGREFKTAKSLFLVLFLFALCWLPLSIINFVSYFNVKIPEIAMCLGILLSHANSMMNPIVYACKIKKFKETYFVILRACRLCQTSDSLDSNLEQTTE

[6] = target: T4, human A1 adenosine receptor (hA1AR) (Homo sapiens, UniProt P30542); test: Radioligand binding at human A1AR, membranes of CHO cells
T4 sequence (P30542 1-326): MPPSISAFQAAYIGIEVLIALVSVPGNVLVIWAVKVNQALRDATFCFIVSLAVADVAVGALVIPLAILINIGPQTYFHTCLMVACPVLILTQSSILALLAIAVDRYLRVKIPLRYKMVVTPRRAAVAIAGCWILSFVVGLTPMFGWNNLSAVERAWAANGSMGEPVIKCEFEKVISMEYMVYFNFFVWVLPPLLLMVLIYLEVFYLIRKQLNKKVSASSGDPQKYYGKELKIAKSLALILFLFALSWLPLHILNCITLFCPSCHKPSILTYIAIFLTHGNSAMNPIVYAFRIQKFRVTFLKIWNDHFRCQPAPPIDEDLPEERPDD

[7] = target: T1, human A2A adenosine receptor (hA2AAR); test: Radioligand binding at human A2AAR, membranes of HEK293 cells
[8] = target: T5, human A3 adenosine receptor (hA3AR) (Homo sapiens, UniProt P0DMS8); test: Radioligand binding at human A3AR, membranes of CHO cells
T5 sequence (P0DMS8 1-318): T2 sequence (P0DMS8 1-318)

SMILES: CNC(=O)[C@@]12C[C@@H]1[C@@H](n1cnc3c(NCc4cccc(I)c4)nc(Cl)nc31)[C@H](O)[C@@H]2O [Compound 1b, reference compound]
- Ki ([1]; read-out: affinity (Ki) A2A, HEK293 cells expressing hA2AAR): 784 ± 97 nM
- % efficacy, A3 (inhibition of forskolin-stimulated cAMP production) [2]: 100 ^c %

SMILES: O[C@@H]1[C@H](O)[C@@H]2C[C@@H]2[C@H]1n1cnc2c(NCc3cccc(Cl)c3)nc(Cl)nc21 [Compound 2a]
- % efficacy, A3 (stimulation of [35S]GTPγS binding) [3]: 2.9 ± 3.7 ^f %

SMILES: CNC(=O)[C@@]12C[C@@H]1[C@@H](n1cnc3c(NCc4cccc(Cl)c4)nc(C#CCCCC(=O)O)nc31)[C@H](O)[C@@H]2O [Compound 6]
- % inhibition of radioligand binding A2A [1]: (43%)

SMILES: CNC(=O)[C@]12C[C@@H]1[C@@H](n1cnc3c(NCc4cccc(Cl)c4)nc(C#CCCCC(=O)OC)nc31)[C@H](O)[C@@H]2O [Compound 9]
- % inhibition of radioligand binding A2A [1]: (49%)

SMILES: CNC(=O)[C@]12C[C@@H]1[C@@H](n1cnc3c(NCc4cccc(Cl)c4)nc(C#CCCCC(=O)NCCN)nc31)[C@H](O)[C@@H]2O [Compound 12]
- % inhibition of radioligand binding A2A [1]: (81%)

SMILES: CNC(=O)[C@]12C[C@@H]1[C@@H](n1cnc3c(NCc4cccc(Cl)c4)nc(C#CCCC(=O)NCCNC(=O)CCCC[C@H]4SC[C@H]5NC(=O)N[C@H]54)nc31)[C@H](O)[C@@H]2O [Compound 17a, (1′S,2′R,3′S,4′S,5′S)-4′-[6-(3-Chiorobenzylamino)-2-(N-biotinyl(β-aminoethylaminocarbonyl)-1-butynyl)-9-yl]-2′, 3′-dihydroxybicyclo[3.1.0]hexane-1′-carboxylic Acid N-Methylamide]
- EC50 [4]: 2.5 ± 0.42 nM

SMILES: CCN1C(=CC=CC=CC2=[N+](CCCCCC(=O)NCCNC(=O)CCC#Cc3nc(NCc4cccc(Cl)c4)c4ncn(C5C(O)C(O)C6(C(=O)NC)CC56)c4n3)c3ccc(S(=O)(=O)O)cc3C2(C)C)C(C)(C)c2cc(S(=O)(=O)[O-])ccc21 (stereo not drawn) [Compound 18, (1′S,2′R,3′S,4′S,5′S)-4′-[6-(3-Chlorobenzylamino)-2-(N-cyaiune(β-aminoethylaminocarbonyl)-1-butynyl)-9-yl]-2′,3′-dihydroxybicyclo[3.1.0]hexane-1′-carboxylic Acid N-Methylamide]
- agonist character at hA3AR in the adenylate cyclase (cAMP) assay [4]: full agonist
- Ki [5]: 9.62 nM and 9.6 nM
- inhibition at 10 µM ([6]; read-out: % inhibition of radioligand binding A1): 36%
- Ki [7]: 4730 ± 1020 nM

SMILES: O[C@@H]1[C@H](O)[C@@H]2C[C@@H]2[C@H]1n1cnc2c(NC3CCCC3)nc(Cl)nc21 [Compound 25]
- fold reduction of affinity at A3AR on loss of the 5′-N-methyluronamide group ([8]; 25 versus 4): 32 fold
- agonist character at hA3AR in the adenylate cyclase (cAMP) assay [4]: nearly full agonism; also recorded: full agonist
- fold reduction of affinity at A1AR on loss of the 5′-N-methyluronamide group ([6]; 25 versus 4): 6 fold

More lines, main results first:

- agonist character at hA3AR in the adenylate cyclase (cAMP) assay [4]: partial agonists
SMILES: O[C@@H]1[C@H](O)[C@@H]2C[C@@H]2[C@H]1n1cnc2c(NCc3cccc(Br)c3)nc(Cl)nc21 [Compound 2b, (1R,2R,3S,4R,5S)-4-(6-(3-bromobenzylamino)-2-chloro-9H-purin-9-yl)bicyclo-[3.1.0]hexane-2,3-diol, reference compound]

- agonist character at hA3AR in the adenylate cyclase (cAMP) assay [4]: partial agonists
SMILES: O[C@@H]1[C@H](O)[C@@H]2C[C@@H]2[C@H]1n1cnc2c(NCc3cccc(I)c3)nc(Cl)nc21 [Compound 2c, reference compound]
- % efficacy, A3 (stimulation of [35S]GTPγS binding) [3]: 1.0 ± 3.2%

- agonist character at hA3AR in the adenylate cyclase (cAMP) assay [4]: partial
SMILES: O[C@@H]1[C@H](O)[C@@H]2C[C@@H]2[C@H]1n1cnc2c(NCc3cccc(Cl)c3)ncnc21 [Compound 22]

- Ki [8]: 11 ± 2.2 nM
- agonist character at hA3AR in the adenylate cyclase (cAMP) assay [4]: nearly full agonism
- Ki [7]: 2330 ± 680 nM
SMILES: O[C@@H]1[C@H](O)[C@@H]2C[C@@H]2[C@H]1n1cnc2c(NCc3cccc(I)c3)ncnc21 [Compound 23, (1′R,2′R,3′S,4′ S,5′ S)-4′-[6-(3-Iodobenzylamino)purine]-2′,3′-dihydroxybicyclo[3.1.0]hexane]
